Experimental data taken from the NIST ThermoML archive (doi:10.1021/je050062a).

Assays:
[1] = Liquid; for mass density: 298.15 K, 101.33 kPa
[2] = refractive index (Na D-line) (dimensionless); conditions: 298.15 K; 101.33 kPa; Liquid; Standard Abbe refractometry

CC(=O)C(C)C [3-methyl-2-butanone]
Conditions	mass density [kg/m3]	refractive index
[1]	799.55	–
[2]	–	1.3862

[1]
Conditions	vapor or sublimation pressure [kPa]
310.45 K	12.1
318.08 K	16.98
324.32 K	22.06
328.85 K	26.46
330 K	27.69
333.49 K	31.7
337.18 K	36.45
340 K	40.45
340.26 K	40.84
346.23 K	50.54
348.87 K	55.4
353.57 K	64.95
357.9 K	74.9
361.86 K	84.97
365.36 K	94.78

CCCC(C)C [2-methylpentane]
Conditions	mass density [kg/m3]	refractive index
[1]	648.46	–
[2]	–	1.36877

Conditions	vapor or sublimation pressure [kPa]
[1], 330 K	90.76

CC(C)C(C)O (configuration not stated) [3-methyl-2-butanol]
Conditions	mass density [kg/m3]	refractive index
[1]	813.42	–
[2]	–	1.407

[1]
Conditions	vapor or sublimation pressure [kPa]
323.61 K	6.527
329.8 K	9.28
330 K	9.35
333.31 K	11.16
336.52 K	13.19
340 K	15.7
340.67 K	16.23
346.13 K	21.09
354.08 K	30.24
360.75 K	40.25
365.98 K	49.79
370.47 K	59.38
374.44 K	69.02
380.99 K	87.65
382.59 K	92.61
